# Reference: patent US20060135494A1, “Methods of treating injuries of the nervous system associated with hemorrhage” (priority 2002, published 2006)
# Experiments:
# [1] = tested on: phosphorylated Akt-1 Ser473, phosphorylated Bad Ser-136; test: Immunoblotting of phosphorylated Akt-1 and phosphorylated Bad in ICH rat brain; type: in vivo
# Text: (§1) All animals received humane care in compliance with the institute's guidelines as outlined in “Guide for the Care and Use of Laboratory Animals” prepared by the National Academy of Sciences and published by the National Institutes of Health (NIH publication no. 86-23, revised 1985). Female Sprague-Dawley rats (250-300 grams (g); Harlan Sprague-Dawley, Inc., Indianapolis, Ind.) were anesthesized with an intramuscular injection of a mixture of ketamine and xylazine and set in supine in a Kopf headholder. The right carotid artery, external and internal branches, was exposed and the distal end of the external carotid freed and retracted to line with the internal carotid. A PE-10 polyethylene tube (Becton-Dickinson, Sparks, Md.) was then introduced from the external into the internal carotid artery, and the former was ligated to hold the tube. TUDCA (Calbiochem-Novabiochem Corp., San Diego, Calif.) was dissolved in phosphate buffer, pH 7.4 at 400 milligrams per milliliter (mg/ml). Saline or TUDCA solution (1 milliliter per kilogram body weight (ml/kg bw)) were injected directly into the internal carotid artery, within 5 minutes. […]
# (§2) Bcl-2 family, NF-κB, IκB, p-Akt, and p-Bad protein levels were determined from total protein homogenates separated by 12% sodium dodecyl sulfate polyacrylamide gel electrophoresis (SDS-PAGE). […]
# [2] = tested on: TUNEL-positive (apoptotic) cells in hemisphere ipsilateral to ICH; test: TUNEL staining of apoptotic cells in ICH rat brain; type: in vivo
# Text: All animals received humane care in compliance with the institute's guidelines as outlined in “Guide for the Care and Use of Laboratory Animals” prepared by the National Academy of Sciences and published by the National Institutes of Health (NIH publication no. 86-23, revised 1985). Female Sprague-Dawley rats (250-300 grams (g); Harlan Sprague-Dawley, Inc., Indianapolis, Ind.) were anesthesized with an intramuscular injection of a mixture of ketamine and xylazine and set in supine in a Kopf headholder. The right carotid artery, external and internal branches, was exposed and the distal end of the external carotid freed and retracted to line with the internal carotid. A PE-10 polyethylene tube (Becton-Dickinson, Sparks, Md.) was then introduced from the external into the internal carotid artery, and the former was ligated to hold the tube. TUDCA (Calbiochem-Novabiochem Corp., San Diego, Calif.) was dissolved in phosphate buffer, pH 7.4 at 400 milligrams per milliliter (mg/ml). Saline or TUDCA solution (1 milliliter per kilogram body weight (ml/kg bw)) were injected directly into the internal carotid artery, within 5 minutes. Different concentrations of TUDCA (10, 50, 100, and 200 mg/kg bw) were administered 1 hour prior to, or 1, 3, and 6 hours after collagenase injection. The polyethylene tube was finally removed, the end of the external carotid artery cauterized, and the wound closed. To induce stroke injury, the animals were placed in a stereotaxic apparatus and ICH induced by collagenase infusion (Rosenberg et al., Stroke 1990;21:801-807 and Chesney et al., Stroke 1995;26:312-316). In brief, a midline incision was made through the scalp to expose the skull. […]
# At 2 days after collagenase infusion, rats were sacrificed for terminal deoxynucleotidyltransferase-mediated dUTP nick end labeling (TUNEL) of apoptotic cells. […] The number of TUNEL-positive cells was counted on a computer screen grid from at least three random fields (400×) within the region adjacent to the hemorrhagic core for each animal.
# [3] = tested on: NF-κB/IκBα protein complex; test: Immunoblotting and immunohistochemistry of NF-κB/IκBα in ICH rat brain; type: in vivo
# Text: as §1, §2
# collagenase-induced ICH = test: Neurological testing: limb placement / step initiation after ICH; type: in vivo, rat
# Text: (§3) All animals received humane care in compliance with the institute's guidelines as outlined in “Guide for the Care and Use of Laboratory Animals” prepared by the National Academy of Sciences and published by the National Institutes of Health (NIH publication no. 86-23, revised 1985). Female Sprague-Dawley rats (250-300 grams (g); Harlan Sprague-Dawley, Inc., Indianapolis, Ind.) were anesthesized with an intramuscular injection of a mixture of ketamine and xylazine and set in supine in a Kopf headholder. The right carotid artery, external and internal branches, was exposed and the distal end of the external carotid freed and retracted to line with the internal carotid. A PE-10 polyethylene tube (Becton-Dickinson, Sparks, Md.) was then introduced from the external into the internal carotid artery, and the former was ligated to hold the tube. […]
# The animals were tested for rotational behavior in response to apomorphine 2 days after surgery. Apomorphine (1 mg/kg bw; Sigma Chemical Co.) was injected subcutaneously, and rotations were determined by a computer-controlled Columbus Instruments Videomex-V system (Columbus, Ohio). […] Step initiation was assessed at 2 days after ICH by independently analyzing stepping behavior in the left and right forelimbs. […] The number of steps initiated by each limb was counted during a 1-minute period.
# [4] = Bile acid analysis of serum and brain; type: in vivo, rat; details: single 100 mg/kg bw arterial dose
# Text: as §3
# Normal controls and rats with intrastriatal hematoma were sacrificed 1, 3, and 6 hours after TUDCA or vehicle injection. […] Bile acids were assessed by gas chromatography after organic solvent extraction, purification on Lipidex 1000, liquid-solid extraction, hydrolysis, isolation by lipophilic anion exchange chromatography and conversion to methyl ester-trimethylsilyl ether derivatives (Setchell et al., Gastroenterology 1997;112:226-235). Bile acid concentrations were expressed as nmol/g of tissue or as μmol/l of serum.
structure (smiles),measurement,setting,value
"C[C@H](CCC(=O)NCCS(=O)(=O)O)[C@H]1CC[C@H]2[C@@H]3[C@@H](O)C[C@@H]4C[C@H](O)CC[C@]4(C)[C@H]3CC[C@]12C [TUDCA, tauroursodeoxycholic acid]",levels of phosphorylated Bad compared with untreated sham controls,[1]; brain of rats receiving TUDCA,~2 fold
same,expression of phosphorylated form of Akt-1,"[1]; hemisphere ipsilateral to ICH, TUDCA 10-200 mg/kg bw",largely restored
same,number of apoptotic cells (apoptotic versus total cells),"[2]; 100 mg/kg bw TUDCA 1 hour before collagenase, ipsilateral hemisphere, vehicle almost 30%",approximately 10%
same,TUNEL staining versus vehicle-injected animals,"[2]; 100 mg/kg bw TUDCA, time-course 1 hour before to 6 hours after collagenase",remained markedly lower
same,reduction of apoptosis,"[2]; TUDCA at greater dosages (than 100 mg/kg bw), 1 hour before collagenase",> 65%
same,"NF-κB activation in the peri-ICH region (immunohistochemistry, words)","[3]; 100 mg/kg bw TUDCA, 2 days after ICH",markedly decreased
same,"IκBα protein level (Western blot, words)","[3]; increasing doses of TUDCA (10-200 mg/kg bw) 1 hour before collagenase, ipsilateral hemisphere",largely restored
same,improved motor activity in test of limb placement,"collagenase-induced ICH; time-course experiment of TUDCA administration, 2 days after ICH",25-40%
same,steps initiated by left forelimb in 1-minute period versus vehicle,"collagenase-induced ICH; unilateral striatal hemorrhage, 2 days",significantly more steps
same,concentration at 3 h,"[4]; female, Sprague-Dawley, rat, serum, other: injected directly into the internal carotid artery, 3 hours following injection (from 0.3)",10.6 µM
same,increase in brain concentrations of the bile acid compared with vehicle-injected controls,[4]; 3 hours,10 fold
